Results on 3 compounds are retold here after patent US20260250320A1, “LIPIDATED PEPTIDE INHIBITORS OF INTERLEUKIN-23 RECEPTOR” (Janssen Pharmaceutica NV, priority 2023, published 2026).

Assay [1] deals with T1, IL-23R (Homo sapiens, UniProt Q5VWK5).
T1 construct: HEK293 cells containing IL-23R, IL-12Rβ1 and a firefly luciferase reporter gene driven by a STAT-inducible promoter (Promega); host or cells: HEK293
T1 sequence (Q5VWK5 24-629): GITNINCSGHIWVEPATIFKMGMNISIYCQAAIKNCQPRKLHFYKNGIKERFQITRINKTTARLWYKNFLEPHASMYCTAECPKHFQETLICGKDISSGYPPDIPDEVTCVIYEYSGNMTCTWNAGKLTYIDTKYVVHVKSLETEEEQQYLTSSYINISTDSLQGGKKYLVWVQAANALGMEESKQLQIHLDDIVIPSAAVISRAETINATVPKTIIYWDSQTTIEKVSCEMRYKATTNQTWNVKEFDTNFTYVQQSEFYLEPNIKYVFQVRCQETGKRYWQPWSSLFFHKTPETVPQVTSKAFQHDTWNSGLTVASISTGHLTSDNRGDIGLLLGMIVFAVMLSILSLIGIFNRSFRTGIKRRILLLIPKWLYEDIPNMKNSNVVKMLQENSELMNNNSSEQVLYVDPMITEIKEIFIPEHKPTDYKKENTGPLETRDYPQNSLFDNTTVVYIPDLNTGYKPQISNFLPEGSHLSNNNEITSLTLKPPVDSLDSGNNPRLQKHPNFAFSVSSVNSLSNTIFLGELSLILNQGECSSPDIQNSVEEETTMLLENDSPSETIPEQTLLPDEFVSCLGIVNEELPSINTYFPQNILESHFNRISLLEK
Nature of the assay: IL23R Reporter Assay. In kind it is cell-based. To be noted: HEK293 cells containing IL-23R, IL-12Rβ1 and STAT-inducible firefly luciferase reporter; 10 ng/mL IL-23 (EC90); 5 h. The method in brief:
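IC50 values were fitted with a 4-parameter Hill equation to luciferase signal, scaled between IL-23-only wells (0% inhibition) and 30 μM reference inhibitor (100%). The readout was a STAT-inducible reporter in IL-23R/IL-12Rβ1 HEK293 cells, stimulated with added 10 ng/mL IL-23 (EC90) for 5 h at 37° C and developed with BioGlo.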
A general note: A reporter such as luciferase makes a cellular process visible.

For assay [2], the system named is IL-23-stimulated phosphorylated STAT3 in peripheral blood mononuclear cells (PBMCs). Nature of the assay: PBMC pSTAT3 Assay. In kind it is cell-based. As to conditions: PBMCs from healthy donors; 30 min preincubation with peptide; IL-23 5 ng/mL for 30 min; phospho-STAT3 by MSD. An outline of the steps:
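Phospho-STAT3 quantified by Meso Scale assay in lysates of PBMCs exposed to IL-23 (5 ng/mL, 30 min, 37 °C) after 30 min peptide pretreatment. Cells were cryopreserved donor PBMCs activated 4 days with anti-CD3 plus IL-1β (100 ng/mL) and starved ~4 h; IC50 reported.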

*1 amine or outer side, *2 acyl side, *3 side chain or, on linkers, in order; H or OH if unused. Where a SMILES comes first, the peptide text is derived from it. Bridges are numbered along the chain shown (N, C = ends). Side-chain parts run from the residue outwards. [ ]: non-standard residue; d: D form. The star is where a group is joined. X9 = O=C(O)CCCCCCCCCCCCCCCCC(=O)N[C@@H](CCC(=O)NCCOCCOCCOCCOCCOCCOCCOCCOCCOCCOCCOCCCCCC(=O)*)C(=O)O; Me3N+(CH2)2O(CH2)2O(CH2)2CO = C[N+](C)(C)CCOCCOCCC(=O)*; Trp(7-Me) = Cc1cccc2c(C[C@H](N)C(=O)O)c[nH]c12; C18 diacid = O=C(O)CCCCCCCCCCCCCCCCC(=O)*; γGlu = O=C(O)[C@H](CCC(=O)[*:2])N[*:1]; 2Nal = N[C@@H](Cc1ccc2ccccc2c1)C(=O)O; 3Pal = N[C@@H](Cc1cccnc1)C(=O)O; Lys(Me) = CNCCCC[C@H](N)C(=O)O; Pen = CC(C)(S)[C@H](N)C(=O)O; Thp = NC1(C(=O)O)CCOCC1; X1 = C[N+](C)(C)CCCCC*; AEEA = NCCOCCOCC(=O)O; Sar = CNCC(=O)O

In the case of `CC(=O)N(C)CCCC[C@@H]1NC(=O)[C@H](Cc2c[nH]c3ccccc23)NC(=O)[C@H]([C@@H](C)O)NC(=O)[C@H](CCCCNC(=O)COCCOCCNC(=O)COCCOCCNC(=O)CC[C@H](NC(=O)CCCCCCCCCCCCCCCCC(=O)O)C(=O)O)NC(=O)[C@@H](NC(=O)CCOCCOCC[N+](C)(C)C)C(C)(C)SSC(C)(C)[C@@H](C(=O)N[C@@H](Cc2ccc(OCCCCC[N+](C)(C)C)cc2)C(=O)N[C@@H](Cc2ccc3ccccc3c2)C(=O)NC2(C(=O)N[C@@H](CCCCN(C)C(C)=O)C(=O)N[C@@H](CC(N)=O)C(=O)N[C@@H](Cc3cccnc3)C(=O)N(C)CC(=O)N(C)C)CCOCC2)NC1=O` [compound 122, cPEG3aCO-Pen(3)-K(PEG2PEG2gEC18OH)-T-7MeW-K(NMeAc)-Pen(3)-TMAPF-2Nal-THF-K(NMeAc)-N-3Pya-Sar-CON(Me)2] ({Me3N+(CH2)2O(CH2)2O(CH2)2CO}-[Pen]K([AEEA-AEEA-γGlu-C18 diacid])TW[Lys(Me)](Ac)[Pen]Y(X1)[2Nal][Thp][Lys(Me)](Ac)N[3Pal][Sar]-NMe2; disulfide 1-6), the IC50 (as a rule, the concentration that inhibits the measured activity by half) in assay [1] is 50 to 500 nM; in assay [2], below 0.5 nM.

On to `CC(=O)NCCCC[C@@H]1NC(=O)[C@H](Cc2c[nH]c3c(C)cccc23)NC(=O)[C@H]([C@@H](C)O)NC(=O)[C@H](CC(N)=O)NC(=O)[C@@H](NC(C)=O)C(C)(C)SSC(C)(C)[C@@H](C(=O)N[C@@H](Cc2ccc(OCCN)cc2)C(=O)N[C@@H](Cc2ccc3ccccc3c2)C(=O)NC2(C(=O)N[C@@H](CCCCNC(=O)CCC(=O)N[C@H](CC(=O)O)C[N+](C)(C)C)C(=O)N[C@@H](CC(N)=O)C(=O)N[C@@H](Cc3cccnc3)C(=O)N(C)[C@@H](CCCCNC(=O)COCCOCCNC(=O)COCCOCCNC(=O)CC[C@H](NC(=O)CCCCCCCCCCCCCCCCC(=O)O)C(=O)O)C(N)=O)CCOCC2)NC1=O` [compound 28, MeCO-Pen(3)-N-T-7MeW-K(Ac)-Pen(3)-AEF-2Nal-THP-K(d)-N-3Pya-NMeK(PEG2PEG2gEC18OH)-CONH2], for which the IC50 in assay [1] was 50 to 500 nM; in assay [2], below 0.5 nM.

As for `CC(=O)N(C)CCCC[C@@H]1NC(=O)[C@H](Cc2c[nH]c3c(C)cccc23)NC(=O)[C@H]([C@@H](C)O)NC(=O)[C@H](CCCCNC(=O)CCCCCOCCOCCOCCOCCOCCOCCOCCOCCOCCOCCOCCNC(=O)CC[C@H](NC(=O)CCCCCCCCCCCCCCCCC(=O)O)C(=O)O)NC(=O)[C@@H](NC(=O)CCOCCOCC[N+](C)(C)C)C(C)(C)SSC(C)(C)[C@@H](C(=O)N[C@@H](Cc2ccc(OCCCCC[N+](C)(C)C)cc2)C(=O)N[C@@H](Cc2ccc3ccccc3c2)C(=O)NC2(C(=O)N[C@@H](CCCCN(C)C(C)=O)C(=O)N[C@@H](CC(N)=O)C(=O)N[C@@H](Cc3cccnc3)C(=O)N(C)CC(=O)N(C)C)CCOCC2)NC1=O` [compound 115, cPEG3aCO-Pen(3)-K(PEG12gEC20OH)-T-7MeW-K(NMeAc)-Pen(3)-TMAPF-2Nal-THP-K(NMeAc)-N-3Pya-Sar-CON(Me)2] ({Me3N+(CH2)2O(CH2)2O(CH2)2CO}-[Pen]K(X9)T[Trp(7-Me)][Lys(Me)](Ac)[Pen]Y(X1)[2Nal][Thp][Lys(Me)](Ac)N[3Pal][Sar]-NMe2; disulfide 1-6), the IC50 in assay [1] was below 50 nM; in assay [2], 0.5 to 5 nM.
